Results on 21 compounds are retold here after US9499484B2, “Indole, indoline derivatives, compositions comprising them and uses thereof” (priority 2012, dated 2016).

In general, IC50 refers to the concentration that gives 50% inhibition.

Where a name gives a salt, the structure may show the parent alone. Read-outs that look alike come from different tables or passages of the source.

The target in one assay is T1, AChE (UniProt P23795).
T1 sequence (P23795 1-613): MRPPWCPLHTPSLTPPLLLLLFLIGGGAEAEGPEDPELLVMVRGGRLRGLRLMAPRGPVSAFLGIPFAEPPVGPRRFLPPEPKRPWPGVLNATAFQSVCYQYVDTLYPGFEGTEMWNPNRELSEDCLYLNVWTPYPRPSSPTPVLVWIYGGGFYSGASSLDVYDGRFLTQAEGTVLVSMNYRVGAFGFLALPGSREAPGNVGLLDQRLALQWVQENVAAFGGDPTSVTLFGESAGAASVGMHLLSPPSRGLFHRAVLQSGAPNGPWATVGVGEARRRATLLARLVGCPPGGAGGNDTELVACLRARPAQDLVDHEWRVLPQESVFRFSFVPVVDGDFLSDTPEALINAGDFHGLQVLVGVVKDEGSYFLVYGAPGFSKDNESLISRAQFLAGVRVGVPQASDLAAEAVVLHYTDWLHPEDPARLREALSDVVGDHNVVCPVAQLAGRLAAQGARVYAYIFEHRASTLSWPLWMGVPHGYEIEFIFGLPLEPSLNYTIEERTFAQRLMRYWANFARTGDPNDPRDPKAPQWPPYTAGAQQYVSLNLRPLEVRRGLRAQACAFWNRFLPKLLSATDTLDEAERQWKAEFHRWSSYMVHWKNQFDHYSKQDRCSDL
It is filed as biochemical, human or bovine erythrocytes. Here is the method: (§1) B. Measurement of Acetylcholinesterase (AChE) and Butylcholinesterase (BuChE) Inhibition In Vitro
(§2) The enzyme was incubated at 37° C. with 6-10 concentrations of the compounds tested and samples were collected at 15, 30, 60 and 120 min Aliquots were transferred to an Elisa multiscan microplate reader (Labsystems) at 15-60 sec time intervals for the determination of residual AChE activity, with Ascent PC software. […] The % inhibition of AChE by each concentration was calculated by comparison with the activity of the enzyme in the absence of drug. […] BuChE-inhibitory activity was determined as described above using BuChE (Sigma Israel) with butylthiocholine iodide (BuTh) 0.075M as a substrate.

Assay [1] can be described thus: Radical scavenging, glucose oxidase/luminol luminescence. It is filed as biochemical. As to conditions: concentration reducing luminescence/radical by 50%; mean ± SD, three independent experiments. The protocol: A. Measurement of Radical Scavenging
A mixture comprising glucose oxidase (GO), luminol, sodium selenite [IV] ([…]) and cobalt [II] (Co^+2) all in Hank's Balance Salt Solution (HBSS) was used (Ginsburg et al, 2004). The production of H2O2 produces a burst of luminescence within 30-60 sec, which lasts for 7-10 min. The luminescence involves oxidation of SEL+5 to it SEL+6 and also the generation of oxidants, which are catalyzed by Co^+2. This method mimics infection and inflammation conditions in which there is an accumulation of several oxidant species. This method provides a source of several radicals. Reduction in luminescence by the compounds is due to their ability to sequester radicals and was measured after addition of several concentrations of each compound. The concentration of each compound that reduced the luminescence by 50% was calculated.

The subject of the next assay is TNF-α, RAW 264.7 cells. Briefly: TNF-α reduction in LPS-stimulated RAW 264.7 macrophages. The assay is classed as cell-based, mouse.
The test system of assay [2] is TNF-α, BV2 mouse microglial cells. The experiment in a line: TNF-α reduction in LPS-stimulated BV2 microglia. The assay is classed as cell-based. As to conditions: for Reduction in TNF-α levels, BV2 Microglia range: concentration range, None = no reduction up till 100 nM. The protocol: The BV2 mouse microglial cells were created by infecting primary mouse microglia with v-raf/v-myc oncogen-carrying retrovirus and donated by Dr. Sigal Fleisher—Berkovich (Ben-Gurion University of the Negev). The cells were cultured in RPMI 1640 containing 0.4 mM L-Glutamine, 10% FCS, 100 units/ml penicillin, 100 μg/ml streptomycin and maintained in a humidified incubator at 37° C. with 5% CO2. For measurement of the effect of compounds on the release of NO the cells were seeded in a density of 80,000 cells/ml and confluence of about 60%, and incubated with test compounds (in the absence of FCS) for […] All the medium was removed and fresh medium containing FCS and LPS (10 μg/ml) added and the cells maintained at 37° C. for 24 h. The release of NO into the medium was determined by measurement of nitrite levels using Griess reagent reaction. For measurement of protein levels of cytokines cells were seeded in a density of 80,000 and incubated with test compounds (in the absence of FCS) and then with LPS as described above. The medium was centrifuged and supernatants collected after 6 h for TNF-α (Biolegend) and after 20 h for IL-6 (Biolegend).

The nature of the next assay: Radical scavenging, Sin1. The assay is classed as biochemical. As to conditions: mean ± SD, three independent experiments.
The next assay has as its target T2, BuChE (UniProt P81908).
T2 construct: 120 min incubation; BuChE IC50
It is filed as biochemical, human or equine serum. The protocol:
as §1, §2

Assay [3] deals with ChE (AChE, BuChE) in plasma, muscle, spleen, brain. The settings on record: after ip and or oral administration in mice.
Protocol: E. Acetylcholinesterase (AChE) and Butylcholinesterase (BuChE) Inhibition Ex Vivo
Compounds of the invention or saline were administrated by intraperitoneal (ip) injection or gavage to groups of 6-7 male ICR or Balb C mice (5-6 weeks of age). The mice were sacrificed 15, 30, 60 or 120 min after drug administration and the brain (minus cerebellum), spleen, and muscle were rapidly removed, weighed and put on ice. Blood was also collected in heparinised tubes, centrifuged at 14000 rpm at room temperature for 4 mM to provide plasma. Phosphate buffer pH 7 was added to each tissue to produce concentrations of 1 mg/mL for brain and spleen and 8 mg/mL for muscle. The tissues were homogenised in cold phosphate buffer pH 7 containing 0.1% Triton and centrifuged at 14000 rpm. Aliquots of plasma and the supernatant of all tissues were incubated with AcTh or BuTh and DTNB in phosphate buffer pH 7 and the rate of development of the yellow colour was measured as described above. Enzyme activity was measured for each time and drug concentration and percent inhibition of the AChE or BuChE activity was calculated by comparison with that of control mice injected with saline. Results are represented as p moles acetylthiocholine or butythiocholine hydrolysed/min/gm tissue.
The subject of a further assay is NO, RAW 264.7 cells. Briefly: NO reduction in LPS-stimulated RAW 264.7 macrophages. The assay is classed as cell-based, mouse.
Where [4] appears, read: Table 2, 120 min incubation, read-out: IC50 AChE 120′.
The mark [5] stands for this setting: Table 3, 120 min incubation, read-out: IC50 AChE 120 min.
[6] abbreviates: Mus musculus, RAW264.7, 6 h, read-out: Reduction in TNF-α levels, RAW Macrophages % peak reduction.
[7] abbreviates: read-out: IC50 BuChE 120 min; Table 3; 120 min incubation.
Where [8] appears, read: concentration range; None = no reduction up till 100 nM.
[9] abbreviates: Mus musculus, RAW264.7, 24 h, read-out: Reduction in NO levels, RAW Macrophages % peak reduction.

For `CN(C)C(=O)Oc1cccc2c1CCN2C` [AN-619, Dimethyl-carbamic acid 1-methyl-2,3-dihydro-1H-indol-4-yl ester], the IC50 on AChE (setting [4]) is 3.5 µM.

As for `CN(C)C(=O)Oc1cccc2ccn(C)c12` [AN-621, Dimethyl-carbamic acid 1-methyl-1H-indol-7-yl ester], the IC50 amounted to 0.33 µM against AChE and 0.3 µM on AChE (setting [4]).

For the compound `CCN(CC)C(=O)Oc1ccc2c(ccn2C)c1` [AN-622, Diethyl-carbamic acid 1-methyl-1H indol-5-yl ester], the IC50 at AChE (read-out: IC50 AChE 120′) is greater than 500 µM.

Regarding `CCN(CC)C(=O)Oc1ccc2c(c1)CCN2C` [AN-625, Diethyl-carbamic acid 1-methyl-2,3-dihydro-1H indol-5-yl ester], the IC50 at AChE (read-out: IC50 AChE 120′) was 50 µM.

On to `CCN(C)C(=O)Oc1cccc2c1c(CCC(=O)OC)cn2C` [AN-629, Methyl 3-(4-((ethyl(methyl)carbamoyl)oxy)-1-methyl-1H-indol-3-yl) propanoate], for which the IC50 on AChE (setting [4]) is 180 µM.

Turning to `CCN(C)C(=O)Oc1ccc2c(c1)C(CCC(=O)OC)CN2` (centres unmarked) [AN-669, 3-(2-(Methoxycarbonyl)ethyl) indolin-5-yl ethylmethylcarbamate], on AChE (setting [4]), the half-maximal inhibitory concentration (IC50) stood at 660 µM.

On to `CCN(C)C(=O)Oc1ccc2c(c1)NCC2CCC(=O)OC` (centres unmarked) [AN-680, 3-(2-(Methoxycarbonyl)ethyl)-1-indoline-6-yl ethylmethylcarbamate hydrochloride], for which the IC50 in assay [1] turned out to be 1.45 ± 0.05 µM; on AChE (setting [5]), 55.2 µM; in “Radical scavenging, Sin1”, 2.36 ± 0.05 µM; at BuChE (setting [7]), 3.9 µM. Moreover, the Emax in the assay on TNF-α, RAW 264.7 cells (setting [6]) was 34.5 ± 1.6%. Besides, the “Reduction in TNF-α levels, BV2 Microglia range” value (“Reduction … BV2 Microglia range” for short) in assay [2] is “None”.

Regarding `COC(=O)CCC1CNc2cc(O)ccc21` (centres unmarked) [AN-682, Methyl 3-(6-hydroxyindolin-3-yl)propanoate hydrochloride], the concentration for half-maximal inhibition (IC50) in assay [1] came out at 1.34 ± 0.01 µM; in the assay “Radical scavenging, Sin1”, 2.33 ± 0.08 µM. Besides, the Emax with TNF-α, RAW 264.7 cells (Mus musculus, RAW264.7, 6 h; read-out: Reduction in TNF-α levels, RAW Macrophages % peak reduction) was 55 ± 1.3%. In the assay on TNF-α, RAW 264.7 cells (setting [8]), the “Reduction in TNF-α levels, RAW Macrophages range” value is 10^−1-100 nM. Besides, the “Reduction in TNF-α levels, BV2 Microglia % peak reduction” value in assay [2] is on record as 17.6 ± 1.3%. Moreover, the “Reduction … BV2 Microglia range” value in assay [2] was 10^−2-100 nM.

As to `COC(=O)CCC1CN(C)c2cccc(OC(=O)N(C)c3ccc(OC)cc3)c21` (centres unmarked) [AN-820, 3-(2-(Methoxycarbonyl)ethyl)-1-methylindolin-4-yl 4-methoxyphenylmethyl carbamate hydrochloride], the values for the IC50 (in assay [1]; on AChE (setting [5]); on BuChE (setting [7])) were 15.3 ± 0.01 µM, 246 µM and greater than 600 µM, respectively.

With `O=C(O)CCC1CNc2cc(O)ccc21` (centres unmarked) [AN-848, 3-(6-Hydroxyindolin-3-yl) propanoic acid hydrochloride], the IC50 in assay [1] came to 2.34 ± 0.02 µM; in the assay “Radical scavenging, Sin1” it was 3.07 ± 0.66 µM.

For the compound `CCN(C)C(=O)Oc1ccc2c(CCC(=O)OCOC(=O)C(C)(C)C)c[nH]c2c1` [AN-860, (3-(6-(Ethyl(methyl)carbamoyloxy)-1H-indol-3-yl)propanotloxy)methyl pivalate], the “ChE inhibition in plasma, muscle, and spleen” value in assay [3] is “inhibited ChE”.

For the compound `CCOC(=O)CCC1CNc2cccc(OC(=O)N(C)CC)c21.O=C(O)CC(O)(CC(=O)O)C(=O)O` (centres unmarked) [AN-871, Ethyl 3-(4-(ethyl(methyl)carbamoyloxy)indolinium citrate], the IC50 at AChE (setting [5]) is 40.2 µM; at BuChE (setting [7]) it was 0.56 µM.

Turning to `CCN(C)C(=O)Oc1ccc2c(c1)NCC2CCC(=O)OC.O=C(O)CC(O)(CC(=O)O)C(=O)O` (centres unmarked) [AN-878, 6-(Ethyl(methyl)carbamoyloxy)-3-(3-methoxy-3-oxopropyl)indolinium citrate], the “ChE inhibition in plasma, muscle, and spleen” value in assay [3] is “inhibited ChE”.

Turning to `CCN(C)C(=O)Oc1cccc2[nH]cc(CCCN)c12` [AN-910, 3-(4-((Ethyl(methyl)carbamoyl)oxy)-1H-indol-3-yl)propan-1-aminium chloride], in the assay on NO, RAW 264.7 cells (setting [9]), the Emax was 29.3 ± 1.2%. For the same compound, the IC50 on BuChE (setting [7]) worked out at 0.23 µM.

In the case of `CCN(C)C(=O)Oc1ccc2c(CCCN)c[nH]c2c1.Cl` [AN-911, 3-(6-((Ethyl(methyl)carbamoyl)oxy)-1H-indol-3-yl)propan-1-aminium chloride], in the assay on NO, RAW 264.7 cells (setting [9]), the Emax was found to be 66.6 ± 1.9%. Moreover, the “Reduction in NO levels by at >20%, RAW Macrophages range” value in the assay with NO, RAW 264.7 cells (setting [8]) is listed as 10^−2-100 nM. Moreover, the IC50 on AChE (read-out: IC50 AChE 120 min) amounted to 24 µM; on BuChE (setting [7]), 0.1 µM.

Regarding `CCN(C)C(=O)Oc1cccc2c1CCN2CCC(=O)OC.Cl` [AN-1243, Methyl 3-(4-((Ethyl(methyl)carbamoyl)oxy)indolin-1-yl)propanoate Hydrochloride], the IC50 worked out at 0.3 ± 0.01 µM in assay [1]; 8.49 ± 0.003 µM in “Radical scavenging, Sin1”; 0.7 µM at BuChE (setting [7]). The Emax in the assay on TNF-α, RAW 264.7 cells (setting [6]) amounted to 20.3 ± 5.4%. For the same compound, the “Reduction in TNF-α levels, BV2 Microglia % peak reduction” value in assay [2] was found to be 18.6 ± 1.0%. Also, the “Reduction … BV2 Microglia range” value in assay [2] is 100 nM.

As for `CCN(C)C(=O)Oc1cccc2[nH]cc(CCN(C)C)c12` [AN-1252, 3-(2-(Dimethylamino)ethyl)-1H-indol-4-yl ethyl(methyl)carbamate hydrochloride], the Emax with NO, RAW 264.7 cells (Mus musculus, RAW264.7, 24 h; read-out: Reduction in NO levels, RAW Macrophages % peak reduction) worked out at 36.4 ± 1.8%. Moreover, the concentration for half-maximal inhibition (IC50) at BuChE (read-out: IC50 BuChE 120 min) came out at 0.11 µM.

Regarding `CCCCN(C)C(=O)Oc1ccc2c(CCC(=O)OC)c[nH]c2c1` [compound 676, 3-(2-(Methoxycarbonyl)ethyl)-1H-indol-6-yl butylmethylcarbamate], at AChE (setting [4]), the IC50 came out at 33 µM.

In the case of `COC(=O)CCc1c[nH]c2cc(OC(=O)N(C)c3ccc(OC)cc3)ccc12` [compound 683, Methyl 3-(6-((4-methoxyphenyl)(methyl)carbamoyloxy)-1H-indol-3-yl)propanoate], the IC50 at AChE (setting [4]) was greater than 800 µM.

Regarding `CCN(C)C(=O)Oc1ccc2c(c1)N(CCC(=O)OC)CC2` [compound 1247, Methyl 3-(6-((Ethyl(methyl)carbamoyl)oxy)indolin-1-yl)propanoate hydrochloride], the concentration for half-maximal inhibition (IC50) in assay [1] was found to be 0.22 ± 0.04 µM; in the assay “Radical scavenging, Sin1” it was 2.18 ± 0.17 µM; at BuChE (setting [7]) it was 6.8 µM.

Consider “Ethyl 3-(5- ((ethyl(methyl)carbamoyl) oxy)-1H- benzo[d]imidazol-1- yl)propanoate hydrochloride Ethyl 3-(6- ((ethyl(methyl)carbamoyl) oxy)-1H- benzo[d]imidazol-1- yl)propanoate hydrochloride [AN-1257]”, for which the “Reduction in NO levels, RAW Macrophages % peak reduction” value in the assay on NO, RAW 264.7 cells was 34.5 ± 1.2%. Also, in the assay on NO, RAW 264.7 cells (setting [8]), the “Reduction in NO levels by at >20%, RAW Macrophages range” value is reported as 10^−2-1000 nM. The IC50 on BuChE (Table 3; 120 min incubation; read-out: IC50 BuChE 120 min) was 0.11 µM.
